Measurements: patent publication US20240270732A1, “RECEPTOR-INTERACTING PROTEIN INHIBITOR, PREPARATION METHOD THEREFOR, AND USE THEREOF” (CHENGDU BIOBEL BIOTECHNOLOGY CO., LTD, priority 2021, published 2024)

What was measured:
[1] = test system: human pancreatic cancer cells PANC-1; test: Inhibition of necrosis of PANC-1 cells induced by TNF-α (CellTiter-Glo); assay type: cell-based; details: TNF-α 100 ng/ml + AT-406 1 μM + z-VAD-FMK 20 μM, 24 h
Method: (§1) After the cells were incubated in a 5% CO2 incubator at 37° C. for 24 h, the test compound of the present invention and the control compound were diluted to the corresponding pre-determined concentration using the medium, and added to the 384-well plate at 5 μL/well. […] Then, 30 μL of CellTiter-Glo luminescent solution was added to each well, and shaken for 2 min. After standing at room temperature for 10 min, the absorbance was measured using ELISA. […] A is the group without necrosis-inducing agents, and B is the group with necrosis-inducing agents. […] A is the group without necrosis-inducing agents, B is the group with necrosis-inducing agents, and X is the group with compounds and necrosis-inducing agents.

HacaT cells = test: Inhibition of necrosis of HacaT cells induced by TNF-α (CellTiter-Glo); assay type: cell-based; details: Homo sapiens, TNF-α 100 ng/ml + AT-406 1 μM + z-VAD-FMK 20 μM, 24 h
Method: […] (purchased from ATCC) in logarithmic growth phase were collected and resuspended in 1640 medium, and then the cell concentration was adjusted to 20 cells/μL, to obtain cell suspension, which was seeded in 384-well plate, with 20 μL cell suspension for each well. After the cells were cultured in a 5% CO2 incubator at 37° C. for 24 h, the test compound of the present invention and the control compound were diluted to the corresponding pre-determined concentration using the medium, and added to the 384-well plate at 5 µL/well. […] Then, 30 μL of CellTiter-Glo luminescent solution was added to each well, and shaken for 2 min. After standing at room temperature for 10 min, the absorbance was measured using ELISA. […] A is the group without necrosis-inducing agents, and B is the group with necrosis-inducing agents.

[2] = test system: human colon cancer cells HT-29; test: Inhibition of necrosis of HT-29 cells induced by TNF-α (CellTiter-Glo); assay type: cell-based; details: TNF-α 100 ng/ml + AT-406 1 μM + z-VAD-FMK 20 μM, 24 h
Method: as §1

U937 cells = test: Inhibition of necrosis of U937 cells induced by TNF-α (CellTiter-Glo); assay type: cell-based; details: Homo sapiens, U-937; TNF-α 100 ng/ml + AT-406 1 μM + z-VAD-FMK 20 μM, 24 h
Method: After the cells were incubated in a 5% CO2 incubator at 37° C. for 24 h, the test compound of the present invention and the control compound were diluted to the corresponding pre-determined concentration using the medium, and added to the 384-well plate at 5 μL/well. […] Then, 30 μL of CellTiter-Glo luminescent solution was added to each well, and shaken for 2 min. After standing at room temperature for 10 min, the absorbance was measured using an enzyme-linked immunosorbent assay (ELISA). […] A is the group without necrosis-inducing agents, and B is the group with necrosis-inducing agents.

human RIP1 kinase = human RIP1 kinase (Homo sapiens (Human), UniProt Q13546); test: Inhibitory activity on RIP1 kinase (ADP-Glo); assay type: biochemical; details: human RIP kinase 25 nM
Chain of human RIP1 kinase (Q13546 whole entry): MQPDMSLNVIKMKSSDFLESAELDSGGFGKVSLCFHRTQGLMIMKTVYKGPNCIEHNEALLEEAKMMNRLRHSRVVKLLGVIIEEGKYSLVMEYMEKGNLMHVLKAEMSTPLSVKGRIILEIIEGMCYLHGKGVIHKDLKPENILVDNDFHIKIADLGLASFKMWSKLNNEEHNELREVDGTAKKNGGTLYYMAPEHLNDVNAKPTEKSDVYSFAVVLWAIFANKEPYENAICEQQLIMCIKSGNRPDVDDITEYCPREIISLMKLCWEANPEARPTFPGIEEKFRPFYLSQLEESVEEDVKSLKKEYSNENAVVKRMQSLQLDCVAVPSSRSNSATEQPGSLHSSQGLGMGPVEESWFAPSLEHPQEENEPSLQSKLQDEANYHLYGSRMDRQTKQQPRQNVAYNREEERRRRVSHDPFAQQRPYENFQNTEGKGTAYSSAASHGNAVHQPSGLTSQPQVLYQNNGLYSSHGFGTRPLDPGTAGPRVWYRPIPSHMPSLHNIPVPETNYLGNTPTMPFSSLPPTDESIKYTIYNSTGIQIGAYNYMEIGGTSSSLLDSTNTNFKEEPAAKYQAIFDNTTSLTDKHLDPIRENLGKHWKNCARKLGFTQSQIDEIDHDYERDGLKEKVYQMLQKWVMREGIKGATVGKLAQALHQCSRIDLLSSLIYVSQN
Method: The compound of the present invention and the control compound were dissolved in the assay buffer (50 mM Hepes pH 7.5, 50 mM NaCl, 30 mM MgCl2, 1 mM DTT, 0.02% CHAPS, 0.5 mg/mL BSA), and diluted in a ratio of 1:1.5 using a 22-point titration (high concentration 2 μM), and then added to a 384-well plate. […] After completion of the reaction, 5 μL of ADP-Glo reagent containing 0.02% CHAPS was added to each well and incubated at room temperature for 1 h to terminate the kinase reaction and use up all remaining ATP. Then, 5 μL of ADP-Glo detection solution containing 0.02% CHAPS was added to each well and incubated at room temperature for 30 min to measure the emittance intensity. For each ATP concentration, the activity data was obtained by the emittance intensity minus the control intensity.

SMILES	IC50 ([1]; Homo sapiens, PANC-1) [nM]	IC50 ([2]; Homo sapiens, HT-29) [nM]	IC50 (U937 cells) [nM]	IC50 (human RIP1 kinase) [nM]	other results
C[C@H]1Oc2ccc(C#CCN3CCN(CC#Cc4ccc5c(c4)N(C)C(=O)[C@@H](NC(=O)c4n[nH]c(Cc6ccccc6)n4)[C@@H](C)O5)CC3)cc2N(C)C(=O)[C@H]1NC(=O)c1n[nH]c(Cc2ccccc2)n1 [Compound I-2]	24.4	13	4.47		IC50 (HacaT cells): 3.89 nM
CN1C(=O)[C@@H](NC(=O)c2n[nH]c(Cc3ccccc3)n2)COc2ccc(C#CCN3CCN(CC#Cc4ccc5c(c4)N(C)C(=O)[C@@H](NC(=O)c4n[nH]c(Cc6ccccc6)n4)CO5)CC3)cc21 [Compound I-11]	20.4	10.8	2.09		IC50 (HacaT cells): 2.97 nM
[2H]C([2H])([2H])N1C(=O)[C@@H](NC(=O)c2n[nH]c(Cc3ccccc3)n2)[C@@H](C)Oc2ccc(C#CCN3CCN(CC#C)CC3)cc21 [Compound I-14]				4.52	
[2H]C([2H])([2H])N1C(=O)[C@@H](NC(=O)c2n[nH]c(Cc3ccccc3)n2)[C@@H](C)Oc2ccc(C#CCN3CCN(CC#Cc4ccc5c(c4)N(C([2H])([2H])[2H])C(=O)[C@@H](NC(=O)c4n[nH]c(Cc6ccccc6)n4)[C@@H](C)O5)CC3)cc21 [Compound I-15]				4.88	
C[C@H]1Oc2ccc(C#CCN3CCN(CC#Cc4ccc5c(c4)N(C)C(=O)[C@@H](NC(=O)c4ncn(Cc6ccccc6)n4)[C@@H](C)O5)CC3)cc2N(C)C(=O)[C@H]1NC(=O)c1ncn(Cc2ccccc2)n1 [Compound I-23]	17.8	26.4	5.91		IC50 (HacaT cells): 2.68 nM
CN1C(=O)[C@@H](NC(=O)c2ncn(Cc3ccccc3)n2)COc2ccc(C#CCN3CCN(CC#Cc4ccc5c(c4)N(C)C(=O)[C@@H](NC(=O)c4ncn(Cc6ccccc6)n4)CO5)CC3)cc21 [Compound I-30]	16	16.6	4.89	2.62	IC50 (HacaT cells): 4.07 nM
[2H]C([2H])([2H])N1C(=O)[C@@H](NC(=O)c2ncn(Cc3ccccc3)n2)[C@@H](C)Oc2ccc(C#CCN3CCN(CC#C)CC3)cc21 [Compound I-35]				5.89	
C[C@H]1Oc2ccc(C#CCN3CCN(CC#Cc4ccc5c(c4)NC(=O)[C@@H](NC(=O)c4ncn(Cc6ccccc6)n4)[C@@H](C)O5)CC3)cc2NC(=O)[C@H]1NC(=O)c1ncn(Cc2ccccc2)n1 [Compound I-38]				4.18	
C#CCN1CCN(CC#Cc2ccc3c(c2)N(C)C(=O)[C@@H](NC(=O)c2ncn(Cc4ccccc4)n2)[C@H](C)O3)CC1 [Compound I-39]				79	
C[C@@H]1Oc2ccc(C#CCN3CCN(CC#Cc4ccc5c(c4)N(C)C(=O)[C@@H](NC(=O)c4ncn(Cc6ccccc6)n4)[C@@H](C)O5)CC3)cc2N(C)C(=O)[C@H]1NC(=O)c1ncn(Cc2ccccc2)n1 [Compound I-40]				66.3	
CN1C(=O)[C@@H](NC(=O)c2n[nH]c(Cc3ccccc3)n2)COc2ccc(C#CCCCCC#Cc3ccc4c(c3)N(C)C(=O)[C@@H](NC(=O)c3n[nH]c(Cc5ccccc5)n3)CO4)cc21 [Compound I-80]				8.85	
C[C@H]1Oc2ccc(C#CCOCCOCCOCCOCCOCC#CC#CCOCCOCCOCCOCCOCC#Cc3ccc4c(c3)N(C)C(=O)[C@H](NC(=O)c3ncn(Cc5ccccc5)n3)[C@@H](C)O4)cc2N(C)C(=O)[C@@H]1NC(=O)c1ncn(Cc2ccccc2)n1 [Compound I-89]				7.44	
CN1C(=O)[C@H](NC(=O)c2ncn(Cc3ccccc3)n2)COc2ccc(C#CCOCCOCCOCCOCCOCC#CC#CCOCCOCCOCCOCCOCC#Cc3ccc4c(c3)N(C)C(=O)[C@H](NC(=O)c3ncn(Cc5ccccc5)n3)CO4)cc21 [Compound I-90]				6.29	
COCCOCCOCCOCCOCC#Cc1ccc2c(c1)N(C)C(=O)[C@@H](NC(=O)c1n[nH]c(Cc3ccccc3)n1)CO2 [Compound I-100]	12.5	8.65	3.14		IC50 (HacaT cells): 2.39 nM
COCCOCCOCCOCCOCC#Cc1ccc2c(c1)N(C)C(=O)[C@@H](NC(=O)c1ncn(Cc3ccccc3)n1)[C@@H](C)O2 [Compound I-101]	13.7	10.1	5.62		IC50 (HacaT cells): 2.95 nM
COCCOCCOCCOCCOCC#Cc1ccc2c(c1)N(C)C(=O)[C@@H](NC(=O)c1ncn(Cc3ccccc3)n1)CO2 [Compound I-102]	13.8	7.92	2.08		IC50 (HacaT cells): 3.58 nM
CC(O)C#Cc1ccc2c(c1)N(C)C(=O)[C@@H](NC(=O)c1ncn(Cc3ccccc3)n1)[C@@H](C)O2 (stereo partly drawn) [Compound I-104]				10.2	
C[C@H]1Oc2ccc(C#Cc3ccncc3)cc2N(C)C(=O)[C@H]1NC(=O)c1n[nH]c(Cc2ccccc2)n1 [Compound I-109]	12.6	13.1			
C[C@H]1Oc2ccc(C#Cc3ccncc3)cc2N(C)C(=O)[C@H]1NC(=O)c1ncn(Cc2ccccc2)n1 [Compound I-110]	11.1	10.9			
C[C@H]1Oc2ccc(C#Cc3cccnc3)cc2N(C)C(=O)[C@H]1NC(=O)c1n[nH]c(Cc2ccccc2)n1 [Compound I-111]	12.4	13.7			
C[C@H]1Oc2ccc(C#Cc3cccnc3)cc2N(C)C(=O)[C@H]1NC(=O)c1ncn(Cc2ccccc2)n1 [Compound I-112]				7.21	IC50 [1]: 11.3 nM; IC50 [2]: 10 nM
C[C@H]1Oc2ccc(C#Cc3cccc(N)c3)cc2N(C)C(=O)[C@H]1NC(=O)c1n[nH]c(Cc2ccccc2)n1 [Compound I-117]				12.7	
C#Cc1ccc2c(c1)N(C)C(=O)[C@@H](NC(=O)c1nc(Cc3ccccc3)n[nH]1)[C@@H](C)O2 [Compound I-119]	17.1	15.3	3.19		
C#Cc1ccc2c(c1)N(C)C(=O)[C@@H](NC(=O)c1ncn(Cc3ccccc3)n1)[C@@H](C)O2 [Compound I-120]	15.7	14.6	4.05		
CN1C(=O)[C@@H](NC(=O)c2ncn(Cc3ccccc3)n2)COc2ccc(CCCN3CCN(CCCc4ccc5c(c4)N(C)C(=O)[C@@H](NC(=O)c4ncn(Cc6ccccc6)n4)CO5)CC3)cc21 [Compound I-121]			6.12		
C[C@H]1Oc2ccc(CCCN3CCN(CCCc4ccc5c(c4)N(C)C(=O)[C@@H](NC(=O)c4ncn(Cc6ccccc6)n4)[C@@H](C)O5)CC3)cc2N(C)C(=O)[C@H]1NC(=O)c1ncn(Cc2ccccc2)n1 [Compound I-122]			7.14		
CN1C(=O)[C@@H](NC(=O)c2n[nH]c(Cc3ccccc3)n2)COc2ccc(CCCN3CCN(CCCc4ccc5c(c4)N(C)C(=O)[C@@H](NC(=O)c4n[nH]c(Cc6ccccc6)n4)CO5)CC3)cc21 [Compound I-123]			4.45		
C[C@H]1Oc2ccc(CCCN3CCN(CCCc4ccc5c(c4)N(C)C(=O)[C@@H](NC(=O)c4n[nH]c(Cc6ccccc6)n4)[C@@H](C)O5)CC3)cc2N(C)C(=O)[C@H]1NC(=O)c1n[nH]c(Cc2ccccc2)n1 [Compound I-124]			6.75		
CN1C(=O)[C@@H](NC(=O)c2n[nH]c(Cc3ccccc3)n2)COc2ccccc21 [Control compound 3, reference compound]	51.3	> 100	7.15		IC50 (HacaT cells): 9.92 nM
